Data set [1] can be described thus: Inhibition of chymotrypsin like activity in Trypanosoma cruzi Silvio X10/7 proteasome using Suc-LLVY-Rho-110-D-Proline peptide as substrate preincubated for 10 mins followed by substrate addition and measured for 30 mins by fluorescence based microplate reader analysis.
The nature of data set [2]: Cytotoxicity against African green monkey Vero E6 cells assessed as reduction in cell viability. The class given is toxicity, cell-based. Particulars: African green monkey (Chlorocebus sabaeus).
Data set [3] concerns Trypanosoma cruzi. Briefly: Antiprotozoal activity against intracellular Trypanosoma cruzi X10/7 A1 amastigotes infected in Vero cells assessed as parasite growth inhibition incubated for 72 to 96 hrs by Hoechst 33342 staining based analysis. The data set is classed as functional, organism-based. Conditions: X10/7 A1, Vero.
Data set [4] relates to Blood. Briefly: T>EC99 in Balb/c mouse infected with Trypanosoma cruzi X10/7 A1 assessed as time of blood free drug concentration in mouse exceeding EC99 for antiprotozoal activity against intracellular Trypanosoma cruzi infected in Vero cells at 50 mg/kg, po and measured after 1 day by UPLC-MS/MS analysis. The data set is classed as ADME, organism-based. Particulars: in vivo, 24 h.

The test system of data set [5] is Blood. Briefly: T>EC99 in Balb/c mouse infected with Trypanosoma cruzi X10/7 A1 assessed as time of blood free drug concentration in mouse exceeding EC99 for antiprotozoal activity against intracellular Trypanosoma cruzi infected in Vero cells at 50 mg/kg, po and measured after 20 days by UPLC-MS/MS analysis. The class given is ADME, organism-based. Particulars: in vivo, 480 h, time 20 day.

For data set [6], the system named is Trypanosoma cruzi. Description: Antitrypanosomal activity against Trypanosoma cruzi X10/7 A1 infected in Balb/c mouse assessed as parasite clearance at 100 mg/kg, po bid for 20 days by bioluminescence analysis. The data set is classed as functional, organism-based. Particulars: time 20.0 day.
The test system of data set [7] is Blood. Description: T>EC99 in Balb/c mouse assessed as time of blood total concentration in mouse exceeding EC99 for antiprotozoal activity against intracellular Trypanosoma cruzi infected in Vero cells at 50 mg/kg, po and measured upto 24 hrs by UPLC-MS/MS analysis. Particulars: in vivo. The data set is classed as ADME, organism-based.

These results are taken from ChEMBL document CHEMBL5346981, “Structure-Guided Design and Synthesis of a Pyridazinone Series of Trypanosoma cruzi Proteasome Inhibitors” (J Med Chem, 2023).

Active and inactive are the calls of the source. No cut-off for these calls is given here.

Usually pIC50 stands for the negative decadic logarithm of the IC50, by convention in mol/L. Usually EC50 stands for the concentration needed to bring the measured effect to its halfway point. `COc1ccc(Cn2nc(C(=O)Nc3ccc(F)c(C(=O)NC4CC4)c3)ccc2=O)cc1` came in with a pIC50 in data set [1] of 7.5. Also, in data set [2], the EC50 is over 50.1 µM. The corresponding values for `COc1cccc(Cn2nc(C(=O)Nc3ccc(F)c(C(=O)NC4CC4)c3)ccc2=O)c1` are under 4 and over 50.1 µM.

Compound `O=C(Nc1ccc(F)c(C(=O)NC2CC2)c1)c1ccc(=O)n(Cc2ccccc2)n1` had a pIC50 in data set [1] of 6.8. Besides, the EC50 in data set [2] is over 50.1 µM; in the data set on Trypanosoma cruzi [3], 2.51 µM.

Compound `O=C(Nc1cccc(C(=O)NC2CC2)c1)c1ccc(=O)n(Cc2ccccc2)c1` had a negative logarithm of the IC50 (pIC50) in data set [1] of 5.8. Moreover, in data set [2], the 50% effective concentration (EC50) is over 50.1 µM. In the case of `CN(C(=O)c1ccc(=O)n(Cc2ccccc2)n1)c1cccc(C(=O)NC2CC2)c1`, the negative-log IC50 (pIC50) in data set [1] is recorded as under 4. In addition, in data set [2], the concentration for a half-maximal effect (EC50) was over 50.1 µM. Consider `COc1ccc(Cn2nc(C(=O)Nc3ccc(F)c(C(=O)N[C@H]4C[C@@H](N5CCOCC5)C4)c3)ccc2=O)cc1F`, for which the pIC50 in data set [1] turned out to be 8.1. `CNC(=O)c1cc(NC(=O)c2ccc(=O)n(Cc3ccc(OC)cc3)n2)ccc1F`: the entries for the “T>EC99” value with Blood [4] and with Blood [5] were 5 h and under 2 h, respectively. Turning to `COc1ccc(Cn2nc(C(=O)Nc3ccc(F)c(C(=O)N[C@H](C)CO)c3)ccc2=O)cc1F`, the negative-log IC50 (pIC50) in data set [1] came to 7.3. Moreover, the EC50 in the data set with Trypanosoma cruzi [3] is 0.316 µM. In the case of `O=C(NC1CC1)c1ccc(F)c(NC(=O)c2ccc(=O)n(Cc3ccccc3)n2)c1`, the pIC50 in data set [1] is recorded as 5.8. Also, the EC50 in data set [2] was over 50.1 µM. `O=C(Nc1ccc(F)c(C(=O)NC2CC2)c1)c1ccc(=O)n(CC2CCCCC2)n1` displayed a pIC50 in data set [1] of 6.4. For the same compound, the EC50 in data set [2] was over 50.1 µM. In data set [1], `COc1ccc(Cn2nc(C(=O)Nc3ccc(F)c(C(=O)N[C@H]4C[C@H](OC)C4)c3)ccc2=O)cc1F` registered a pIC50 of 8.2. For the compound `O=C(Nc1ccc(F)c(-c2cn3nc(N4CCOCC4)cnc3n2)c1)N1CCCC1`, in data set [1], the negative-log IC50 (pIC50) is listed as 7.3. Also, in data set [2], the concentration giving a half-maximal response (EC50) was over 50.1 µM. In the case of `O=C(Nc1ccc(F)c(C(=O)NC2CC2)c1)c1ccc(=O)n(Cc2ccc(Cl)c(F)c2)n1`, the pIC50 in data set [1] amounted to 7.6. For the same compound, the half-maximal effective concentration (EC50) is over 50.1 µM in data set [2] and 0.251 µM in the data set with Trypanosoma cruzi [3]. `COc1ccc(Cn2nc(C(=O)Nc3ccc(F)c(C(=O)NCCN4CCOCC4)c3)ccc2=O)cc1` gave a pIC50 in data set [1] of 6.9. For the same compound, the EC50 in data set [2] was over 50.1 µM. In turn, `CNC(=O)c1cc(NC(=O)c2ccc(=O)n(Cc3ccc(OC)c(F)c3)n2)ccc1F` registered a pIC50 in data set [1] of 8.2. On to `COc1ncc(Cn2nc(C(=O)Nc3ccc(F)c(C(=O)NC4CC4)c3)ccc2=O)cc1F`, for which the EC50 was over 50.1 µM in data set [2] and 31.6 µM with Trypanosoma cruzi [3].

As for `CN(C(=O)c1cccc(NC(=O)c2ccc(=O)n(Cc3ccccc3)n2)c1)C1CC1`, in data set [1], the negative-log IC50 (pIC50) was found to be 4.7. As to `O=C(Cn1ccnc1[N+](=O)[O-])NCc1ccccc1`, the result in the data set with Trypanosoma cruzi [6] was Active. Take `O=C(NC1CC1)c1cccc(NC(=O)c2ccc(=O)n(Cc3ccccc3)n2)c1`: the pIC50 in data set [1] came out at 6.2. In addition, the half-maximal effective concentration (EC50) in the data set on Trypanosoma cruzi [3] was 10 µM. In data set [1], `COc1ccc(Cn2nc(C(=O)Nc3ccc(F)c(C(=O)NC4CC4)c3)ccc2=O)cc1Cl` came in with a pIC50 of 8.5. Moreover, in data set [2], the concentration giving a half-maximal response (EC50) is over 50.1 µM. On to `COc1ccc(Cn2nc(C(=O)Nc3ccc(F)c(C(=O)N[C@H]4C[C@H](N5CCOCC5)C4)c3)ccc2=O)cc1F`, for which the pIC50 in data set [1] stood at 8.1. As for `COc1ccc(Cn2nc(C(=O)Nc3ccc(F)c(C(=O)NC4CC4)c3)ccc2=O)cc1F`, the pIC50 in data set [1] was 8.1. Also, the “T>EC99” value with Blood [7] amounted to 14 h. `COc1ccc(Cn2nc(C(=O)Nc3ccc(F)c(C(=O)NC4CC4)c3)ccc2=O)cc1C#N` yielded a pIC50 in data set [1] of 8. Further, the EC50 in data set [2] was over 50.1 µM.
